{"source": "patent EP4778522A1", "about": "“USE OF PYRROLOPYRIMIDINE COMPOUND AND COMPOSITION THEREOF” (Guangzhou Joyo Pharmatech Co., Ltd., priority 2023, dated 2025)", "key": {"[1]": {"test_system": "FITC-induced mouse atopic dermatitis model", "experiment": "FITC-induced mouse atopic dermatitis model: change in ear thickness", "format": "in vivo, Balb/c mice", "conditions": "20 mg/dose topical twice a day; for Ear thickness Day 5 / Ear thickness Day 6 / Ear thickness Day 12 / Ear thickness Day 13 / ΔEar thickness Day 6-Day 5 / ΔEar thickness Day 13-Day 5: right ear; for Inhibitory rate% (Day 13): Δ ear thickness vs model group", "from_the_text": "• 1) Animals: female Balb/c mice, specific pathogen-free (SPF), aged 6-7 weeks at grouping, with 10 mice per group. The animals were provided by Shanghai Jihui Laboratory Animal Care Co., Ltd. • 2) Reagents, positive drugs and test drugs\nFITC induction method: experimental animals were subjected to examination in an adaptation period and weight screening after examined to be qualified. The animals were randomly divided into 6 experimental groups according to the weight, including a normal group, a model group, a clobetasol propionate ointment group, a 0.5% Compound I group, a 1% Compound I group and a 2% Compound I group, with 10 mice in each group. On day 0 and day 1, after all the experimental animals were administered for 2 hours, the animals were anesthetized with zoletil (25 mg/kg) and xylazine (5 mg/kg), and then subjected to sensitization operation at the abdomen (a sensitized part). The abdominal part of the experimental animal at about 3×4 cm was depilated before sensitization, and then 0.5% FITC (dissolved in dibutyl phthalate/acetone solution) was applied to the alopecic areas of the abdomens of the experimental animals in model group for sensitization. An equal volume of dibutyl phthalate/acetone was given to the alopecic areas of the abdomens of the experimental animals in the normal-blank gel group.\nOn day 5 and day 12, all the experimental animals were anesthetized with 1-4% isoflurane (all subsequent measurements on ear thickness were performed under anesthesia with isoflurane), and the thickness of the right-side ear margins of the experimental animals was measured as a baseline. On day 5 and day 12, 0.5% FITC was applied to both the inner and outer sides of the right ears of the experimental animals in model group for challenge treatment. An equal volume of dibutyl phthalate/acetone solution was given to the experimental animals in the normal-blank gel group.\nOn day 6 and day 13, 24 hours after each FITC challenge, the thickness of the right-side ear margins of all the experimental animals was measured. Ear swelling response was determined by the change in the ear thickness before and after FITC challenge measured with a digital display thickness gauge, the measurement positions were basically kept constant, and the mean change in the ear thickness (ΔT±S.E.M.) was recorded for each group."}, "[2]": {"test_system": "FITC-induced mouse atopic dermatitis model", "experiment": "FITC-induced mouse atopic dermatitis model: histopathological scoring of ears", "format": "in vivo, Balb/c mice", "conditions": "pathological score (0-4), right ear, day 13, 20 mg/dose topical twice a day", "from_the_text": "On day 13, all the experimental animals were euthanized by CO2 and cervical dislocation, and then the right ears were collected and fixed in 10% formalin for histopathological analysis.\nAfter the ear tissues were embedded with paraffin, each ear tissue was sliced into 3-5 µm sections. After HE staining, the sections were subjected to routine histopathological evaluation and ear tissue thickness measurement. Table 4 Histopathological scoring criteria"}, "[3]": {"test_system": "monobenzone-induced mouse vitiligo model", "experiment": "Monobenzone-induced mouse vitiligo model: hair depigmentation area scoring", "format": "in vivo, C57BL/6 mice", "parameters": "Hair depigmentation area scoring: scale not given here", "method": "• 1) Animals: C57BL/6 mice, specific pathogen-free (SPF), with equal numbers of females and males. The mice were 6-8 weeks old at grouping, with 10 mice per group. The animals were provided by Charles River Laboratories. • 2) Reagents, positive drugs and test drugs\nMonobenzone induction method: after 1 week of adaptive feeding of all the animals, modeling was performed and all black hairs on the back of the mice were removed by a shaver. 10 animals were randomly selected as a normal control group and applied with 50 mg of vaseline once a day; and the remaining 80 animals were used for modeling and applied with 50 mg of 40% monobenzone depigmentation ointment once a day. The applying area of the normal control group and the model group was 2 cm*3 cm of the fixed part of the back, and the modeling was continuously performed for 103 days. In order to prevent the phenomenon that the animals lick the drugs, after the animals were applied with a modeling agent, they needed to be separately placed in an independent cage without padding for a period of time to naturally dry the modeling agent, and then they were placed in a rearing cage for normal rearing. During the modeling process, new hairs grown in the alopecic areas of the backs of the mice were shaved by the shaver and then applied with the drug.\nThe 40% monobenzone depigmentation ointment was applied every day. After modeling for 53 days, according to a depigmentation area score (see scoring criteria of Table 9), 70 animals successfully modeled in modeling group (score ≥ 2) were randomly divided into 7 groups with 10 mice per group. The mean depigmentation area score of the animals in each group was basically consistent before the administration, and the day of grouping was defined as day 0 of the administration treatment period. Table 8 Grouping and administration regimen\nDuring the whole experiment process, the mice in normal control group (G1) were applied with 50 mg of vaseline once a day; and the mice in each model group (G2-G8) were applied with 50 mg of 40% monobenzone ointment once a day. After modeling for 53 days, the mice were grouped and subjected to drug treatment after grouping consecutively for 50 days. The modeling operation was maintained during the drug intervention period. The mice were applied with the drug twice a day for treatment at an interval of 6 hours or more. […]"}}, "note": "Where “and” joins values, the source holds several entries; their conditions need not be identical. Identical values can stand only once. Marks after values point to notes of the source that are not given here.", "data": [{"smiles": "CN(c1ncnc2[nH]ccc12)[C@@H]1CCc2cc(C#N)nn2C1", "note": "[compound I]", "values": [{"measurement": "Ear thickness Day 5", "setting": "[1]; 0.5% gel", "value": 0.17, "unit": "mm"}, {"measurement": "Ear thickness Day 6", "setting": "[1]; 0.5% gel", "value": 0.19, "unit": "mm"}, {"measurement": "Ear thickness Day 12", "setting": "[1]; 0.5% gel", "value": 0.18, "unit": "mm"}, {"measurement": "Ear thickness Day 13", "setting": "[1]; 0.5% gel", "value": 0.19, "unit": "mm"}, {"measurement": "ΔEar thickness Day 6-Day 5", "setting": "[1]; 0.5% gel", "value": 0.0250, "unit": "mm"}, {"measurement": "ΔEar thickness Day 13-Day 5", "setting": "[1]; 0.5% gel", "value": "0.0170 ± 0.0033", "unit": "mm"}, {"measurement": "ΔEar thickness Day 13-Day 5", "setting": "[1]; 0.5% gel, listed as compound 1", "value": 0.0170, "unit": "mm"}, {"measurement": "Inhibitory rate% (Day 13)", "setting": "[1]; 0.5% gel", "value": 82.65, "unit": "%"}, {"measurement": "Inhibitory rate% (Day 13)", "setting": "[1]; 0.5% gel, listed as compound 1", "value": 82.65, "unit": "%****"}, {"measurement": "Ear thickness Day 5", "setting": "[1]; 1% gel", "value": 0.17, "unit": "mm"}, {"measurement": "Ear thickness Day 6", "setting": "[1]; 1% gel", "value": 0.20, "unit": "mm"}, {"measurement": "Ear thickness Day 12", "setting": "[1]; 1% gel", "value": 0.18, "unit": "mm"}, {"measurement": "Ear thickness Day 13", "setting": "[1]; 1% gel", "value": 0.19, "unit": "mm"}, {"measurement": "ΔEar thickness Day 6-Day 5", "setting": "[1]; 1% gel", "value": 0.0280, "unit": "mm"}, {"measurement": "ΔEar thickness Day 13-Day 5", "setting": "[1]; 1% gel", "value": "0.0250 ± 0.0043 mm and 0.0250 mm"}, {"measurement": "Ear thickness Day 5", "setting": "[1]; 2% gel", "value": 0.17, "unit": "mm"}, {"measurement": "Ear thickness Day 6", "setting": "[1]; 2% gel", "value": 0.20, "unit": "mm"}, {"measurement": "Ear thickness Day 12", "setting": "[1]; 2% gel", "value": 0.18, "unit": "mm"}, {"measurement": "Ear thickness Day 13", "setting": "[1]; 2% gel", "value": 0.20, "unit": "mm"}, {"measurement": "ΔEar thickness Day 6-Day 5", "setting": "[1]; 2% gel", "value": 0.0260, "unit": "mm"}, {"measurement": "ΔEar thickness Day 13-Day 5", "setting": "[1]; 2% gel", "value": "0.0250 ± 0.0017 mm and 0.0250 mm"}, {"measurement": "Enlargement of follicular orifice", "setting": "[2]; 1% gel", "value": "1.50 ± 0.17 and 1.50"}, {"measurement": "Enlargement of follicular orifice", "setting": "[2]; 2% gel", "value": "1.30 ± 0.26 and 1.30"}, {"measurement": "Hair depigmentation area scoring", "setting": "[3]; Day 0 (before administration), 0.5% compound I gel group", "value": 3.80}, {"measurement": "Hair depigmentation area scoring", "setting": "[3]; Day 0 (before administration), 1% compound I gel group", "value": 3.70}, {"measurement": "Hair depigmentation area scoring", "setting": "[3]; Day 0 (before administration), 2% compound I gel group", "value": 3.80}, {"measurement": "Hair depigmentation area scoring", "setting": "[3]; Day 10, 0.5% compound I gel, 30 mg topical twice a day", "value": "3.60 **"}, {"measurement": "Hair depigmentation area scoring", "setting": "[3]; Day 10, 1% compound I gel, 30 mg topical twice a day", "value": "3.90 **"}, {"measurement": "Hair depigmentation area scoring", "setting": "[3]; Day 10, 2% compound I gel, 30 mg topical twice a day", "value": "4.00 **"}, {"measurement": "Hair depigmentation area scoring", "setting": "[3]; Day 20, 0.5% compound I gel, 30 mg topical twice a day", "value": "3.60 **"}, {"measurement": "Hair depigmentation area scoring", "setting": "[3]; Day 20, 1% compound I gel, 30 mg topical twice a day", "value": "3.60 **"}, {"measurement": "Hair depigmentation area scoring", "setting": "[3]; Day 20, 2% compound I gel, 30 mg topical twice a day", "value": "3.50 **"}, {"measurement": "Hair depigmentation area scoring", "setting": "[3]; Day 30, 0.5% compound I gel, 30 mg topical twice a day", "value": "3.30 **"}, {"measurement": "Hair depigmentation area scoring", "setting": "[3]; Day 30, 1% compound I gel, 30 mg topical twice a day", "value": "3.40 **"}, {"measurement": "Hair depigmentation area scoring", "setting": "[3]; Day 30, 2% compound I gel, 30 mg topical twice a day", "value": "3.10 **"}, {"measurement": "Hair depigmentation area scoring", "setting": "[3]; Day 35, 0.5% compound I gel, 30 mg topical twice a day", "value": "3.20 **"}, {"measurement": "Hair depigmentation area scoring", "setting": "[3]; Day 35, 1% compound I gel, 30 mg topical twice a day", "value": "3.10 **"}, {"measurement": "Hair depigmentation area scoring", "setting": "[3]; Day 35, 2% compound I gel, 30 mg topical twice a day", "value": "2.90 **"}, {"measurement": "Hair depigmentation area scoring", "setting": "[3]; Day 38, 0.5% compound I gel, 30 mg topical twice a day", "value": "3.20 **"}, {"measurement": "Hair depigmentation area scoring", "setting": "[3]; Day 38, 1% compound I gel, 30 mg topical twice a day", "value": "2.90 **"}, {"measurement": "Hair depigmentation area scoring", "setting": "[3]; Day 38, 2% compound I gel, 30 mg topical twice a day", "value": "2.60 **"}, {"measurement": "Hair depigmentation area scoring", "setting": "[3]; Day 41, 0.5% compound I gel, 30 mg topical twice a day", "value": "2.90 **"}, {"measurement": "Hair depigmentation area scoring", "setting": "[3]; Day 41, 1% compound I gel, 30 mg topical twice a day", "value": "2.60 **"}, {"measurement": "Hair depigmentation area scoring", "setting": "[3]; Day 41, 2% compound I gel, 30 mg topical twice a day", "value": "2.30 **"}, {"measurement": "Hair depigmentation area scoring", "setting": "[3]; Day 44, 0.5% compound I gel, 30 mg topical twice a day", "value": "2.80 **"}, {"measurement": "Hair depigmentation area scoring", "setting": "[3]; Day 44, 1% compound I gel, 30 mg topical twice a day", "value": "2.50 **"}, {"measurement": "Hair depigmentation area scoring", "setting": "[3]; Day 44, 2% compound I gel, 30 mg topical twice a day", "value": "2.20 **"}, {"measurement": "Hair depigmentation area scoring", "setting": "[3]; Day 47, 0.5% compound I gel, 30 mg topical twice a day", "value": "2.60 **"}, {"measurement": "Hair depigmentation area scoring", "setting": "[3]; Day 47, 1% compound I gel, 30 mg topical twice a day", "value": "2.40 **"}, {"measurement": "Hair depigmentation area scoring", "setting": "[3]; Day 47, 2% compound I gel, 30 mg topical twice a day", "value": "2.20 **"}, {"measurement": "mean inhibitory rate of depigmentation area scores", "setting": "[3]; Day 50, 0.5% compound I gel, 30 mg (5 mg/cm^2), compared with the model control group", "value": 52.0, "unit": "%"}, {"measurement": "Hair depigmentation area scoring", "setting": "[3]; Day 50, 0.5% compound I gel, 30 mg topical twice a day", "value": "2.50 **"}, {"measurement": "mean inhibitory rate of depigmentation area scores", "setting": "[3]; Day 50, 1% compound I gel, 30 mg (5 mg/cm^2), compared with the model control group", "value": 54.9, "unit": "%"}, {"measurement": "Hair depigmentation area scoring", "setting": "[3]; Day 50, 1% compound I gel, 30 mg topical twice a day", "value": "2.30 **"}, {"measurement": "mean inhibitory rate of depigmentation area scores", "setting": "[3]; Day 50, 2% compound I gel, 30 mg (5 mg/cm^2), compared with the model control group", "value": 58.8, "unit": "%"}, {"measurement": "Hair depigmentation area scoring", "setting": "[3]; Day 50, 2% compound I gel, 30 mg topical twice a day", "value": "2.10 **"}, {"measurement": "mean inhibitory rate of depigmentation area scores", "setting": "[3]; day 50, high concentration (2%) compound I gel, compared with the blank preparation group", "value": 51.2, "unit": "%"}, {"measurement": "mean inhibitory rate of depigmentation area scores", "setting": "[3]; day 50, low concentration (0.5%) compound I gel, compared with the blank preparation group", "value": 41.9, "unit": "%"}, {"measurement": "mean inhibitory rate of depigmentation area scores", "setting": "[3]; day 50, medium concentration (1%) compound I gel, compared with the blank preparation group", "value": 46.5, "unit": "%"}]}]}
